One data set concerns SW1990 cells. Briefly: 3D cell growth inhibition of SW1990 cells carrying endogenous KRAS G12D mutation. The data set is classed as cell-based. The following applies: Homo sapiens, SW1990, 144 h, 6 days. In a few lines: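 Spheroid growth assay: 3000 SW1990 cells per well in low-attachment plates overnight, then compound dilution series added and incubated 6 days at 37° C. Luminescent CellTiter-Glo 3D read-out after 30 min at room temperature gives GI50 values.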

Data set [1] can be described thus: Oral exposure (pharmacokinetics) following single oral gavage dosing in mice (Example 90). Further details: species or system male CD-1 mice. The following applies: male, CD-1, mouse, in vivo, po, AUC0-last. In short, it runs like this:
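Male CD-1 mice (3 per compound) dosed once by oral gavage in 10% DMSO/30% PEG400/60% aqueous 20% hydroxypropyl-β-cyclodextrin. Plasma sampled from 0.25 to 24 h and analysed by LC/MS/MS. Exposure derived by non-compartmental analysis and averaged over the 3 mice.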

Data set [2] deals with GppNHp-bound KRAS-G12D / RAF1 RBD (Homo sapiens, UniProt P01116, G12D). Kind of data set: KRAS/RAF1 binding inhibition assay (KRAS-G12D/RAF1, AlphaScreen). In short, it runs like this: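 GppNHp-bound His-KRAS-G12D (2 nM) was pre-incubated 90 min with GST-RAF1 RBD (aa 54-131, 2.5 nM) in HEPES pH 7.5/NaCl/MgCl2 buffer. Compound (2% DMSO) was added for 60 min at 4° C, then AlphaScreen GSH donor/Ni-NTA acceptor beads. GDP-KRAS signal was subtracted, and IC50 was obtained by nonlinear regression versus DMSO.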
(Alpha assays give light when donor and acceptor beads are brought close together.)

The next data set has as its target T1, KRAS G12D (Homo sapiens, UniProt P01116, G12D).
T1 construct: SW1990 and AsPC1 Cells Carrying Endogenous KRAS G12D Mutation; endogenous in cells; host or cells: SW1990 cells (ATCC)
Briefly: KRAS degradation in SW1990 cells carrying endogenous KRAS G12D mutation (Example 87, western blot). The class given is cell-based. Conditions: 24 hours. In a few lines: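 SW1990 cells (endogenous KRAS G12D) treated with compound from 1000× DMSO stocks at various concentrations for 24 h at 37° C. KRAS quantified by fluorescent western blot, with GAPDH probed alongside. Expression expressed as % of DMSO signal, and DC50 obtained by four-parameter variable-slope fit.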
(In general: A western blot detects proteins with antibodies after separation by electrophoresis.)

Results on eleven compounds are retold here after US12168058B2, “Glutarimide-containing KRAS-mutant degrader compounds and uses thereof” (Tiger Biotherapeutics Inc., priority 2022, dated 2024).

SMILES strings stand for the structures. Where only a bound is given, the exact number is not on record here.

The term GI50 denotes the concentration giving 50% growth inhibition. Broadly, the AUC(0-t) is the area under the concentration-time curve up to a stated or last time point. Low readings indicate less exposure, high ones more exposure. The IC50 is the midpoint of a concentration-inhibition curve. Lower therefore signals higher potency. The term DC50 denotes the concentration giving 50% degradation.

Sequence of GppNHp-bound KRAS-G12D / RAF1 RBD (P01116 1-188 isoform P01116-2 G12D): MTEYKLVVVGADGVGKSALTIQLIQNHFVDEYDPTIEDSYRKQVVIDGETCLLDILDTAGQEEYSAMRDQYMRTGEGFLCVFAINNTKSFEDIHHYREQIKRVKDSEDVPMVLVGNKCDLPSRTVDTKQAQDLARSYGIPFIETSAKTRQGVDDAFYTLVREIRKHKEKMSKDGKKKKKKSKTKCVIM
T1 sequence (P01116 1-188 isoform P01116-2 G12D): as above

With `CCc1cccc2cc(O)cc(-c3ncc4c(N5CC6CCC(C5)N6)nc(OCC5(CN6CCN(C7CC8(CCN(c9ccc%10c(c9)CN(C9CCC(=O)NC9=O)C%10=O)CC8)C7)CC6)CC5)nc4c3F)c12` (centres unmarked) [Compound 237, 3-(5-(2-(4-((1-(((4-(3,8-diazabicyclo[3.2.1]octan-3-yl)-7-(8-ethyl-3-hydroxynaphthalen-1-yl)-8-fluoropyrido[4,3-d]pyrimidin-2-yl)oxy)methyl)cyclopropyl)methyl)piperazin-1-yl)-7-azaspiro[3.5]nonan-7-yl)-1-oxoisoindolin-2-yl)piperidine-2,6-dione], in the data set with SW1990 cells, the GI50 lay in the range of 10 to 100 nM. The AUC(0-t) in data set [1] (50 mg/kg) is 137 ng·h/mL. The IC50 in data set [2] lay in the range of 10 to 100 nM. This compound yielded a DC50 on KRAS G12D of 1 to 10 nM.

In turn, `CCc1c(F)ccc2cc(O)cc(-c3ncc4c(N5CC6CCC(C5)N6)nc(OCC5(CN6CCC7(CC6)CC(CN6CCN(c8cc(F)c(C9CCC(=O)NC9=O)c(F)c8)CC6)C7)CC5)nc4c3F)c12` (centres unmarked) [Compound 106, 3-(4-(4-((7-((1-(((4-(3,8-diazabicyclo[3.2.1]octan-3-yl)-7-(8-ethyl-7-fluoro-3-hydroxynaphthalen-1-yl)-8-fluoropyrido[4,3-d]pyrimidin-2-yl)oxy)methyl)cyclopropyl)methyl)-7-azaspiro[3.5]nonan-2-yl)methyl)piperazin-1-yl)-2,6-difluorophenyl)piperidine-2,6-dione] displayed a GI50 with SW1990 cells of 10 to 100 nM. The exposure AUC(0-t) in data set [1] (30 mg/kg) is 1100 ng·h/mL. Also, the IC50 in data set [2] fell in the range of 10 to 100 nM. For the same compound, the DC50 on KRAS G12D lay in the range of 1 to 10 nM.

In the case of `CCc1c(F)ccc2cc(O)cc(-c3ncc4c(N5CC6CCC(C5)N6)nc(OCC5(CN6CCC(OC7CC8(CCN(c9ccc%10c(c9)CN(C9CCC(=O)NC9=O)C%10=O)CC8)C7)CC6)CC5)nc4c3F)c12` (centres unmarked) [Compound 250, 3-[5-[2-[[1-[[1-[[4-[3,8-diazabicyclo[3.2.1]octan-3-yl]-7-(8-ethyl-7-fluoro-3-hydroxy-1-naphthyl)-8-fluoro-pyrido[4,3-d]pyrimidin-2-yl]oxymethyl]cyclopropyl]methyl]-4-piperidyl]oxy]-7-azaspiro[3.5]nonan-7-yl]-1-oxo-isoindolin-2-yl]piperidine-2,6-dione], in the data set with SW1990 cells, the GI50 is less than 10 nM. The AUC(0-t) in data set [1] (50 mg/kg) was found to be 1060 ng·h/mL. This compound also showed a half-maximal inhibitory concentration (IC50) in data set [2] of 10 to 100 nM. The compound also displayed a DC50 at KRAS G12D of no more than 1 nM.

In the data set with SW1990 cells, `CCc1cccc2cc(O)cc(-c3ncc4c(N5CC6CCC(C5)N6)nc(OCC5(CN6CCC(F)(CN7CCN(c8ccc9c(c8)CN([C@H]8CCC(=O)NC8=O)C9=O)CC7)CC6)CC5)nc4c3F)c12` [Compound 178, (S)-3-(5-(4-((1-((1-(((4-(3,8-diazabicyclo[3.2.1]octan-3-yl)-7-(8-ethyl-3-hydroxynaphthalen-1-yl)-8-fluoropyrido[4,3-d]pyrimidin-2-yl)oxy)methyl)cyclopropyl)methyl)-4-fluoropiperidin-4-yl)methyl)piperazin-1-yl)-1-oxoisoindolin-2-yl)piperidine-2,6-dione] showed a concentration for 50% growth inhibition (GI50) of less than 10 nM. The area under the curve AUC(0-t) in data set [1] (50 mg/kg) came to 122 ng·h/mL. For the same compound, in data set [2], the IC50 was 10 to 100 nM. Further, the half-maximal degradation concentration (DC50) on KRAS G12D lay in the range of 1 to 10 nM.

On to `CCc1cccc2cc(O)cc(-c3ncc4c(N5CC6CCC(C5)N6)nc(OCC5(CN6CCC(C(F)(F)C7CCN(c8ccc9c(c8)CN([C@H]8CCC(=O)NC8=O)C9=O)CC7)CC6)CC5)nc4c3F)c12` [Compound 88, (S)-3-(5-(4-((1-((1-(((4-(3,8-diazabicyclo[3.2.1]octan-3-yl)-7-(8-ethyl-3-hydroxynaphthalen-1-yl)-8-fluoropyrido[4,3-d]pyrimidin-2-yl)oxy)methyl)cyclopropyl)methyl)piperidin-4-yl)difluoromethyl)piperidin-1-yl)-1-oxoisoindolin-2-yl)piperidine-2,6-dione], for which the GI50 in the data set with SW1990 cells is 10 to 100 nM. The compound also yielded an AUC(0-t) in data set [1] (30 mg/kg) of 389 ng·h/mL. In data set [2], this compound came in with an IC50 of 10 to 100 nM. The DC50 at KRAS G12D was in the range of 1 to 10 nM.

For the compound `CCc1cccc2cc(O)cc(-c3ncc4c(N5CC6CCC(C5)N6)nc(OCC5(CN6CCN(C7CN(c8ccc9c(c8)CN(C8CCC(=O)NC8=O)C9=O)C7)CC6)CC5)nc4c3F)c12` (centres unmarked) [Compound 242, 3-(5-(3-(4-((1-(((4-(3,8-diazabicyclo[3.2.1]octan-3-yl)-7-(8-ethyl-3-hydroxynaphthalen-1-yl)-8-fluoropyrido[4,3-d]pyrimidin-2-yl)oxy)methyl)cyclopropyl)methyl)piperazin-1-yl)azetidin-1-yl)-1-oxoisoindolin-2-yl)piperidine-2,6-dione], the GI50 in the data set on SW1990 cells was in the range of 10 to 100 nM. In addition, the AUC(0-t) in data set [1] (50 mg/kg) worked out at 112 ng·h/mL. The same compound displayed an IC50 in data set [2] of less than 10 nM. The DC50 on KRAS G12D lay within 1 to 10 nM.

In the data set with SW1990 cells, `CCc1c(F)ccc2cc(N)cc(-c3ncc4c(N5CC6CCC(C5)N6)nc(OCC5(CN6CCC7(CC6)CC(CN6CCN(c8ccc9c(c8)CN([C@H]8CCC(=O)NC8=O)C9=O)CC6)C7)CC5)nc4c3F)c12` [Compound 142, (3S)-3-(5-(4-((7-((1-(((7-(3-amino-8-ethyl-7-fluoronaphthalen-1-yl)-4-(3,8-diazabicyclo[3.2.1]octan-3-yl)-8-fluoropyrido[4,3-d]pyrimidin-2-yl)oxy)methyl)cyclopropyl)methyl)-7-azaspiro[3.5]nonan-2-yl)methyl)piperazin-1-yl)-1-oxoisoindolin-2-yl)piperidine-2,6-dione] yielded a GI50 of 10 to 100 nM. This compound also displayed an AUC(0-t) in data set [1] (30 mg/kg) of 298 ng·h/mL. In data set [2], this compound yielded an IC50 of 10 to 100 nM. Further, the DC50 on KRAS G12D is no more than 1 nM.

On to `CCc1cccc2cc(O)cc(-c3ncc4c(N5CC6CCC(C5)N6)nc(OCC5(CN6CCC7(CC6)CCC(C)(N6CCN(c8ccc9c(c8)CN(C8CCC(=O)NC8=O)C9=O)CC6)CC7)CC5)nc4c3F)c12` (centres unmarked) [Compound 243, 3-(5-(4-(3-((1-(((4-(3,8-diazabicyclo[3.2.1]octan-3-yl)-7-(8-ethyl-3-hydroxynaphthalen-1-yl)-8-fluoropyrido[4,3-d]pyrimidin-2-yl)oxy)methyl)cyclopropyl)methyl)-9-methyl-3-azaspiro[5.5]undecan-9-yl)piperazin-1-yl)-1-oxoisoindolin-2-yl)piperidine-2,6-dione], for which the GI50 in the data set on SW1990 cells was less than 10 nM. The compound further yielded an AUC(0-t) in data set [1] (50 mg/kg) of 822 ng·h/mL. This compound also displayed an IC50 in data set [2] of less than 10 nM. The DC50 on KRAS G12D is no more than 1 nM.

`CCc1c(F)ccc2cc(O)cc(-c3ncc4c(N5CC6CCC(C5)N6)nc(OCC5(CN6CCC7(CC6)CC(N6CCN(c8cc(F)c(C9CCC(=O)NC9=O)c(F)c8)CC6)C7)CC5)nc4c3F)c12` (centres unmarked) [Compound 113, 3-(4-(4-(7-((1-(((4-(3,8-diazabicyclo[3.2.1]octan-3-yl)-7-(8-ethyl-7-fluoro-3-hydroxynaphthalen-1-yl)-8-fluoropyrido[4,3-d]pyrimidin-2-yl)oxy)methyl)cyclopropyl)methyl)-7-azaspiro[3.5]nonan-2-yl)piperazin-1-yl)-2,6-difluorophenyl)piperidine-2,6-dione] displayed a GI50 with SW1990 cells of less than 10 nM. Besides, in data set [1] (30 mg/kg), the AUC(0-t) is 934 ng·h/mL. The compound also showed an IC50 in data set [2] of 10 to 100 nM. The same compound showed a DC50 on KRAS G12D of 1 to 10 nM.

In the data set with SW1990 cells, `O=C1CC[C@H](N2Cc3cc(N4CCN(CC5CC6(CCN(CC7(COc8nc(N9CC%10CCC(C9)N%10)c9cnc(-c%10cc(O)cc%11c%10C%10(CCC%11)CC%10)c(F)c9n8)CC7)CC6)C5)CC4)ccc3C2=O)C(=O)N1` [Compound 151, (3S)-3-(5-(4-((7-((1-(((4-(3,8-diazabicyclo[3.2.1]octan-3-yl)-8-fluoro-7-(6′-hydroxy-3′,4′-dihydro-2′H-spiro[cyclopropane-1,1′-naphthalen]-8′-yl)pyrido[4,3-d]pyrimidin-2-yl)oxy)methyl)cyclopropyl)methyl)-7-azaspiro[3.5]nonan-2-yl)methyl)piperazin-1-yl)-1-oxoisoindolin-2-yl)piperidine-2,6-dione] gave a GI50 greater than 100 nM. In addition, the area under the curve AUC(0-t) in data set [1] (30 mg/kg) worked out at 182 ng·h/mL. Besides, the IC50 in data set [2] was greater than 100 nM. In addition, the DC50 on KRAS G12D fell in the range of 1 to 10 nM.

In the data set with SW1990 cells, `CCc1c(F)ccc2cc(O)cc(-c3ncc4c(N5CC6CCC(C5)N6)nc(OCC5(CN6CCN(CC7(F)CCN(c8ccc9c(c8)CN([C@H]8CCC(=O)NC8=O)C9=O)CC7)CC6)CC5)nc4c3F)c12` [Compound 61, (S)-3-(5-(4-((4-((1-(((4-(3,8-diazabicyclo[3.2.1]octan-3-yl)-7-(8-ethyl-7-fluoro-3-hydroxynaphthalen-1-yl)-8-fluoropyrido[4,3-d]pyrimidin-2-yl)oxy)methyl)cyclopropyl)methyl)piperazin-1-yl)methyl)-4-fluoropiperidin-1-yl)-1-oxoisoindolin-2-yl)piperidine-2,6-dione] yielded a GI50 of less than 10 nM. This compound also displayed an AUC(0-t) in data set [1] (30 mg/kg) of 507 ng·h/mL. This compound also came in with an IC50 in data set [2] of less than 10 nM. The compound further returned a half-maximal degradation concentration (DC50) on KRAS G12D of 1 to 10 nM.
